From ChEMBL document CHEMBL3616406, “Soluble epoxide hydrolase inhibitory activity of anthraquinone components from Aloe” (Bioorg Med Chem, 2015)
Active and inactive are the calls of the source. The calls are words filed in the database; no cut-off is given here.

What was measured:
[1] = biological target: T1, Bifunctional epoxide hydrolase 2 (Homo sapiens) (UniProt P34913); experiment: Inhibition of sEH (unknown origin) using PHOME as substrate assessed as formation of 6-methoxy-2-naphthaldehyde at 100 uM measured during 1 hr by fluorescence photometric analysis relative to control
T1 sequence (whole entry): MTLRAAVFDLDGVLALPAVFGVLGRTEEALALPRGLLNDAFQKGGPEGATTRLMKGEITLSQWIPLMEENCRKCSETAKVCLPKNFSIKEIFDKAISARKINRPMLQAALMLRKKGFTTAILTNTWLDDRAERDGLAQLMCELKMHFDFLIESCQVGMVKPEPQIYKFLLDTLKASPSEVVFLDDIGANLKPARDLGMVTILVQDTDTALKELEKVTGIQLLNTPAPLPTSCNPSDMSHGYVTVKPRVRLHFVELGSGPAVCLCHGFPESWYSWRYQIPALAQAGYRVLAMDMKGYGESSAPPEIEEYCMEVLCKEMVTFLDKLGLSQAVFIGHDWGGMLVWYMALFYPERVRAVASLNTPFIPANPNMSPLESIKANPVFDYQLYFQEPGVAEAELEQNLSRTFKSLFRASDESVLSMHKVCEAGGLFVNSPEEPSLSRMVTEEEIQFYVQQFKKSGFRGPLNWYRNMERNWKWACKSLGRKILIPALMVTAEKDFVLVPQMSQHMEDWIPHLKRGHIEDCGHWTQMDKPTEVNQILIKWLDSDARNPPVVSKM

[2] = biological target: T2, Bifunctional epoxide hydrolase 2 (Homo sapiens, UniProt P34913); experiment: Inhibition of sEH (unknown origin) using PHOME as substrate assessed as formation of 6-methoxy-2-naphthaldehyde measured during 1 hr by fluorescence photometric analysis
T2 sequence (P34913 whole entry): T1 sequence (whole entry)

[3] = biological target: T2, Bifunctional epoxide hydrolase 2; experiment: Mixed-type inhibition of sEH (unknown origin) using PHOME as substrate assessed as formation of 6-methoxy-2-naphthaldehyde measured during 30 mins by Dixon plot analysis
[4] = biological target: T1, Bifunctional epoxide hydrolase 2 (Homo sapiens); experiment: Mixed-type inhibition of sEH (unknown origin) using PHOME as substrate assessed as formation of 6-methoxy-2-naphthaldehyde measured during 30 mins by Lineweaver-Burk plot analysis
[5] = biological target: T2, Bifunctional epoxide hydrolase 2; experiment: Non-competitive inhibition of sEH (unknown origin) using PHOME as substrate assessed as formation of 6-methoxy-2-naphthaldehyde measured during 30 mins by Dixon plot analysis
[6] = biological target: T1, Bifunctional epoxide hydrolase 2 (Homo sapiens); experiment: Non-competitive inhibition of sEH (unknown origin) using PHOME as substrate assessed as formation of 6-methoxy-2-naphthaldehyde measured during 30 mins by Lineweaver-Burk plot analysis

Compound | inhibition [1] [%] | IC50 [2] [µM] | Ki [3] [µM] | inhibition [4] | Ki [5] [µM] | inhibition [6]
Cc1cc(O)c2c(c1)[C@H]([C@@H]1O[C@H](CO)[C@@H](O)[C@H](O)[C@H]1O)c1cccc(O)c1C2=O | 90.5 | 15.6 | 0.2 | Active | – | –
C[C@@H]1O[C@@H](OCc2cc(O)c3c(c2)[C@H]([C@@H]2OC[C@@H](O)[C@H](O)[C@H]2O)c2cccc(O)c2C3=O)[C@H](O)[C@H](O)[C@H]1O | 87 | 13.8 | – | – | 0.8 | Active
O=C1c2cccc(O)c2C(=O)c2c(O)cc(CO)cc21 [ALOE-EMODIN] | 79.9 | 26.8 | – | – | 52.2 | Active
O=C1c2c(O)cccc2C([C@@H]2O[C@H](CO)[C@@H](O)[C@H](O)[C@H]2O)c2cc(CO)cc(O)c21 (some centres not stated) [ALOIN] | 73.9 | 37.4 | 57.3 | Active | – | –
C[C@@H]1O[C@@H](OCc2cc(O)c3c(c2)[C@](O)([C@@H]2O[C@H](CO)[C@@H](O)[C@H](O)[C@H]2O)c2cccc(O)c2C3=O)[C@H](O)[C@H](O)[C@H]1O | 109 | 12.5 | 10.4 | Active | – | –
O=C1c2c(O)cccc2[C@@H]([C@@H]2O[C@H](CO)[C@@H](O)[C@H](O)[C@H]2O)c2cc(CO)cc(O)c21 | 62.8 | 41.1 | 27.8 | Active | – | –
O=C1c2cc(CO)cc(O)c2C(=O)c2c1ccc([C@]1([C@@H]3O[C@H](CO)[C@@H](O)[C@H](O)[C@H]3O)c3cccc(O)c3C(=O)c3c(O)cc(CO)cc31)c2O | 93.1 | 4.1 | – | – | 15.5 | Active
C[C@@H]1O[C@@H](OCc2cc(O)c3c(c2)[C@H]([C@@H]2O[C@H](CO)[C@@H](O)[C@H](O)[C@H]2O)c2cccc(O)c2C3=O)[C@H](O)[C@H](O)[C@H]1O | 86.9 | 20.2 | 2 | Active | – | –
